pEC50, pIC50: −log10 of the molar value. Calls of active or inactive are those of the source.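 How the source made its calls: active means compounds giving half or more protection of infected cells from virus-caused growth loss, again on retest; inactive means the rest.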 Where a SMILES comes first, the peptide text is derived from it. [ ]: non-standard residue; d: D form. Abu = CC[CH](N)C(=O)O
Test system: CEM cells HIV-1 protection, formazan growth assay
Experiment: NCI AIDS Antiviral Assay
Details: for pIC50: measured here: growth of uninfected CEM cells
Method in brief: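 Category rules: moderately active means at least 50% protection on retest, and confirmed active means 100% protection reproducibly. The underlying data came from a formazan growth assay in HIV-1-infected CEM cells.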

Structure (SMILES) | pEC50 | pIC50 | outcome
O=C(OCCc1ccccc1)c1cc2ccc(O)c(O)c2cn1 | < 5.08 | < 5.08 | 
CCOC(=O)CC(N1CC1)N1CC1 | < 3.70 | < 3.70 | 
CC(C)OC(=O)C1Cc2c([nH]c3ccccc23)C(c2ccccc2)N1 (stereo not given) |  |  | inactive
CCc1c(CNC2=NCCN2)c(CC)c(CNC2=NCCN2)c(CC)c1CNC1=NCCN1 | < 3.70 | < 3.70 | 
O=C(CBr)N1CCC2(CC1)SSC1(CCN(C(=O)CBr)CC1)S2 | < 3.70 | 6.24 | 
c1ccc(CSP234N5CCN2CCN3CCN4CC5)c(CSP234N5CCN2CCN3CCN4CC5)c1 | < 4.00 | 4.40 | 
O=C1OC2(C(F)(F)F)Oc3ccccc3CN2C12CCCCC2 (stereo not given) | < 3.70 | 3.94 | 
C=CCc1cccc(/C=N\N=C(/N)NO)c1O |  |  | inactive
NNC(=O)C(=O)N/N=C(/CCC(=O)NCCc1ccccc1)CC(=O)c1ccccc1 |  |  | inactive
CCN(CC)CCNc1ccc(CO)c2oc3ccc(OS(=O)(=O)c4ccc(C)cc4)cc3c(=O)c12 | < 4.29 | 5.05 | 
O/N=C1\CN2CCC1CC2 |  |  | inactive
CC1CCC2(CCN(CCCN(C)C)CC2)C1 (stereo not given) |  |  | inactive
Nc1ncc(CN2CCOCC2)c(-c2ccccc2O)n1 | < 3.70 | < 3.70 | 
CC(=O)Nc1ccc(/C=C/C(=O)c2sc(-c3nc(C)c(C(=O)/C=C/c4ccc(NC(C)=O)cc4)s3)nc2C)cc1 | < 4.48 | < 4.48 | 
Cc1ccc2c(c1)S(=O)(=O)N(C)C(c1ccccc1)=C2 | < 4.74 | < 4.74 | 
COc1cccc(NC(=O)C(C#N)=C(SC)SC)c1 | < 3.70 | 5.10 | 
CCNC(=O)CCN(C(=O)O)S(=O)(=O)c1ccc(NC(=O)c2ccccc2)cc1 | < 3.22 | < 3.22 | 
CC(=O)Oc1c(C)c(-c2ccccc2)c(C)c(-c2ccccc2)c1C(=S)c1ccccc1 |  |  | inactive
CC(C)[P+](c1ccccc1)(c1ccccc1)c1ccccc1 | < 3.70 | 5.26 | 
CN1C(=O)NC2ON=C(c3ccccc3)C2C1=O (stereo not given) | < 3.70 | 4.27 | 

Structure (SMILES) | pEC50 | pIC50 | outcome
OCC1OC(n2ccc3c2ncn2cnnc32)C(O)C1O (stereo not given) | < 3.51 | 4.53 | 
CC(=O)Oc1ccc(-c2oc3c([C@H]4C=C(C)CC(c5ccc(OC(C)=O)cc5OC(C)=O)[C@@H]4C(=O)c4ccc(OC(C)=O)c(CC=C(C)C)c4OC(C)=O)c(OC(C)=O)cc(O)c3c(=O)c2CC=C(C)C)c(OC(C)=O)c1 (stereo not given in full) | < 4.93 | 5.13 | 
C[C@@H](NC(=O)c1ccccc1SC(=O)CCCC[n+]1ccccc1)C(N)=O | 6.13 | 3.98 | 
CCC(N)C(=O)NC(C(=O)NC(CC(C)C)C(=O)NC(CC(N)=O)C(=O)NC(Cc1ccccc1)C(=O)O)C(C)O (stereo not given) (H-[Abu]TLNF-OH; configuration not given here) |  |  | inactive
CC(C)(C)[Si](C)(C)OC1C(/C=N\O)OC(n2ccc(=O)[nH]c2=O)C1O[Si](C)(C)C(C)(C)C (stereo not given) | < 3.70 | 5.45 | 
CCN(CC)CCNc1ccc(C)c2sc3ccccc3c(=O)c12 | < 3.70 | 4.96 | 
COC(O)C(=O)c1ccc2c(c1)CC1(C2)Cc2cc3c(cc2C1=O)CCC3 (stereo not given) | < 3.70 | 4.49 | 
COc1ccc(C2c3c(-c4ccccc4)nn(-c4ccccc4)c3Oc3ncn4nc(CC#N)nc4c32)cc1OC (stereo not given) | < 3.70 | < 3.70 | 
Cn1cc(-c2ccc(CCOC3CCCCO3)cc2)c2c(C#N)cccc21 (stereo not given) | < 3.70 | 4.41 | 
CCOC(=O)/C=C/c1ccc2c(c1)OC(CO)[C@H](c1ccc(O)c(OC)c1)O2 (stereo not given in full) | < 3.47 | 4.11 | 
CCC(=O)C1(N2CCOCC2)CCN(CCCC(=O)c2ccc(F)cc2)CC1 | < 3.70 | < 3.70 | 
CN1CCC(OC(=O)Oc2ccccc2)(c2ccccc2)CC1 | < 3.70 | 4.51 | 
Cc1ccc2cc(NC(=O)CN)c3ccc(C)nc3c2n1.Cc1ccc2cc(NC(=O)CN)c3ccc(C)nc3c2n1.O=C1OC(C(O)C[O-])C(O)=C1O.[Cu+] | < 4.90 | 6.25 | 
Cc1ccc2c(c1C)C(=O)/C(=C/c1cccc(C)c1C(=O)O)C2 |  |  | inactive
COC(=O)c1cc(C(=CCCC(C)[C@H]2CCC3C4CC[C@@H]5CCCC[C@]5(C)C4CC[C@@]32C)c2cc(Cl)c(OC)c(C(=O)OC)c2)cc(Cl)c1OC (stereo not given in full) | < 3.70 | 4.40 | 
CC1(O)CC(=O)c2c(cc3ccc(-c4c5c(c(O)c6c(O)cccc46)C(=O)CC(C)(O)C5)c(O)c3c2O)C1 (stereo not given) | < 3.70 | 6.41 | 
COc1ccc2c(c1)OC(=O)C(S(=O)(=O)c1ccccc1)C2 (stereo not given) | < 3.53 | < 3.53 | 
C=C(Br)CN1CCC2(c3ccccc3)C(=O)C([Se]c3ccccc3)CCC12 (stereo not given) | < 4.83 | < 4.83 | 
CC(=O)/C(=C\N1CCNC1=S)C(=O)Nc1ccccc1 | < 3.70 | < 3.70 | 
CCOC(=O)NCC(OS(C)(=O)=O)C(CNC(=O)OCC)OS(C)(=O)=O (stereo not given) | < 3.92 | < 3.92 | 

Structure (SMILES) | pEC50 | pIC50 | outcome
O=C(Nc1ccc(Sc2ccc(N=Nc3c(O)c(S(=O)(=O)O)cc4cc(S(=O)(=O)O)ccc34)cc2)cc1)c1ccc(N=Nc2cc(S(=O)(=O)O)c3ccccc3c2O)cc1 |  |  | inactive
C=C(C(=C)P(=S)(C(C)C)C(C)C)P(=S)(C(C)C)C(C)C | < 4.13 | < 4.13 | 
Oc1ccc(Cl)cc1Sc1cc(Cl)ccc1O | < 3.70 | 5.13 | 
O=C1/C(=C/c2cccs2)NC(=S)N1CN1CCCC(CO)C1 (stereo not given) | < 3.70 | 4.35 | 
O=C(CN1CCC(O)(c2ccc(F)cc2)CC1)N1CCN(C/C=C/c2ccccc2)CC1 | < 3.70 | 4.54 | 
Oc1ccccc1/C=N/N1C(=S)N(c2ccccc2)C(=Nc2ccccc2)C1=Nc1ccccc1 | < 4.70 | 5.89 | 
CCOC(=O)[C@@H]1OC(c2ccccc2)O[C@H]1C(=O)OCC | < 3.70 | < 3.70 | 
c1ccc(NNCC[P+](c2ccccc2)(c2ccccc2)c2ccccc2)cc1 | < 3.70 | 5.54 | 
O=S(=O)(OI(O)CC(F)(F)F)C(F)(F)F | < 3.70 | < 3.70 | 
CC(C)CCC[C@@H](C)C1CCC2C3CCC4C[C@@](O)(C(c5cc(Cl)c(O)c(C(=O)O)c5)c5cc(Cl)c(O)c(C(=O)O)c5)CC[C@]4(C)C3CC[C@@]21C (stereo not given in full) | < 3.70 | 4.60 | 
COc1cc2nc(Sc3c([N+](=O)[O-])ncn3C)[nH]c2cc1OC | < 3.41 | 5.26 | 
CCCCCCCCCCCCCCCC[N+]1(C)CC2CCCCC2C1 (stereo not given) | < 5.70 | 6.26 | 
Cc1ccc(NC(=O)CC(=O)N2N=C(N(CCC#N)c3cccc(C)c3)CC2c2ccccc2)cc1 (stereo not given) | < 4.12 | < 4.12 | 
Nc1nc2n(nc[n+]2CCP(=O)(O)O)c(=O)[nH]1 |  |  | inactive
Cc1cc2c(cc1-c1cc3c(cc1C)C(C(C)C)=C(O)C(=O)/C3=C\Nc1c3ccccc3nc3ccccc13)/C(=C/Nc1c3ccccc3nc3ccccc13)C(=O)C(O)=C2C(C)C | < 4.00 | 5.76 | 
COC1OC2=CCC3C(=O)N(c4ccccc4)C(=O)C3C2[C@H](OCc2ccccc2)C1OCc1ccccc1 (stereo not given in full) |  |  | inactive
O/C(=C\c1nc2ccccc2nc1/C=C(\O)c1ccc(Cl)cc1)c1ccccc1 | < 3.70 | 5.19 | 
COc1cc2c(c(OC)c1OC)C1CCCCC1SCC2=O (stereo not given) | < 3.81 | < 3.81 | 

Reference: PubChem BioAssay AID179 (DTP/NCI, 2004)
